Test results as given in ChEMBL document CHEMBL3259571, “Diacylglycerol lactones targeting the structural features that distinguish the atypical C1 domains of protein kinase C ζ and ι from typical C1 domains” (J Med Chem, 2014).

Columns and labels:
[1] = Displacement of [20-3H]PDBu from GST-tagged mouse PKC-delta C1B domain P11R mutant expressed in Escherichia coli after 2 to 30 mins by polyethylene glycol precipitation assay in presence of phosphatidylserine
[2] = Displacement of [20-3H]PDBu from GST-tagged mouse PKC-delta C1B domain L20R mutant expressed in Escherichia coli after 2 to 30 mins by polyethylene glycol precipitation assay in presence of phosphatidylserine
[3] = Displacement of [20-3H]PDBu from GST-tagged mouse PKC-delta C1B domain N7R mutant expressed in Escherichia coli after 2 to 30 mins by polyethylene glycol precipitation assay in presence of phosphatidylserine
Mus musculus [4] = species: Mus musculus; assay: Selectivity ratio of Ki for GST-tagged mouse PKC-delta C1B domain P11R mutant to Kd for GST-tagged full-length mouse PKC-delta C1B domain
Mus musculus [5] = species: Mus musculus; assay: Selectivity ratio of Ki for GST-tagged mouse PKC-delta C1B domain N7R mutant to Kd for GST-tagged full-length mouse PKC-delta C1B domain
Mus musculus [6] = species: Mus musculus; assay: Selectivity ratio of Ki for GST-tagged mouse PKC-delta C1B domain S10R mutant to Kd for GST-tagged full-length mouse PKC-delta C1B domain
[7] = Displacement of [20-3H]PDBu from GST-tagged mouse PKC-delta C1B domain S10R mutant expressed in Escherichia coli after 2 to 30 mins by polyethylene glycol precipitation assay in presence of phosphatidylserine
Mus musculus [8] = species: Mus musculus; assay: Selectivity ratio of Ki for GST-tagged mouse PKC-delta C1B domain L20R mutant to Kd for GST-tagged full-length mouse PKC-delta C1B domain
[9] = target: Protein kinase C delta type (Mus musculus, UniProt P28867); assay: Displacement of [20-3H]PDBu from GST-tagged full-length mouse PKC-delta C1B domain expressed in Escherichia coli after 2 to 30 mins by polyethylene glycol precipitation assay in presence of phosphatidylserine
Mus musculus [10] = species: Mus musculus; assay: Selectivity ratio of Ki for GST-tagged mouse PKC-delta C1B domain N7R/L20R mutant to Kd for GST-tagged full-length mouse PKC-delta C1B domain
[11] = Displacement of [20-3H]PDBu from GST-tagged mouse PKC-delta C1B domain N7R/L20R mutant expressed in Escherichia coli after 2 to 30 mins by polyethylene glycol precipitation assay in presence of phosphatidylserine
[12] = Displacement of [20-3H]PDBu from GST-tagged mouse PKC-delta C1B domain N7R/P11R mutant expressed in Escherichia coli after 2 to 30 mins by polyethylene glycol precipitation assay in presence of phosphatidylserine
Mus musculus [13] = species: Mus musculus; assay: Selectivity ratio of Ki for GST-tagged mouse PKC-delta C1B domain N7R/P11R mutant to Kd for GST-tagged full-length mouse PKC-delta C1B domain
[14] = Displacement of [20-3H]PDBu from GST-tagged mouse PKC-delta C1B domain N7R/S10R/P11R mutant expressed in Escherichia coli after 2 to 30 mins by polyethylene glycol precipitation assay in presence of phosphatidylserine
[15] = Displacement of [20-3H]PDBu from GST-tagged mouse PKC-delta C1B domain N7R/S10R/L20R mutant expressed in Escherichia coli after 2 to 30 mins by polyethylene glycol precipitation assay in presence of phosphatidylserine
Mus musculus [16] = species: Mus musculus; assay: Selectivity ratio of Ki for GST-tagged mouse PKC-delta C1B domain N7R/S10R/L20R mutant to Kd for GST-tagged full-length mouse PKC-delta C1B domain
Mus musculus [17] = species: Mus musculus; assay: Selectivity ratio of Ki for GST-tagged mouse PKC-delta C1B domain N7R/S10R/P11R mutant to Kd for GST-tagged full-length mouse PKC-delta C1B domain
Mus musculus [18] = species: Mus musculus; assay: Selectivity ratio of Kd for GST-tagged full-length mouse PKC-delta C1B domain to Ki for GST-tagged mouse PKC-delta C1B domain P11R mutant

Sequence of Protein kinase C delta type (P28867 whole entry, the tested form may be a part): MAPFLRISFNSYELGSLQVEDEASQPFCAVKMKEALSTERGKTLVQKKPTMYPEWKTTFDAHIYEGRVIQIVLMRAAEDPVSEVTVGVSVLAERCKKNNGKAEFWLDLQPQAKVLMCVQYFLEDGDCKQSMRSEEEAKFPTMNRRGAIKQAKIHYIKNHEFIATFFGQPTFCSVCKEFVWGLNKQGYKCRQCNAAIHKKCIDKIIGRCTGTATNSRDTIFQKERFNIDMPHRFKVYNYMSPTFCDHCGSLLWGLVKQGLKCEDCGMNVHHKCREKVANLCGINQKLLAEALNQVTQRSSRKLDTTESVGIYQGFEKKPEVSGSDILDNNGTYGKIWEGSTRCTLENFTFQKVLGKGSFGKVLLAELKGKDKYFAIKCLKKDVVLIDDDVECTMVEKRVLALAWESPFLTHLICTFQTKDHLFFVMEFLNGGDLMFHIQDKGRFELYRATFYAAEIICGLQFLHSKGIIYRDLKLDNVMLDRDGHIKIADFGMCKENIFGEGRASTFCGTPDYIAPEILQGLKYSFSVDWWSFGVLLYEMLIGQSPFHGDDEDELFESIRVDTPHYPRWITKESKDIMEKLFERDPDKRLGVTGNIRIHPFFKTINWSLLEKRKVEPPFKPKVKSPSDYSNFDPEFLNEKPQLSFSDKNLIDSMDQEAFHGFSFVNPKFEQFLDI

SMILES | Ki [1] [nM] | Ki [2] [nM] | Ki [3] [nM] | Selectivity ratio (Mus musculus [4]) | Selectivity ratio (Mus musculus [5]) | Selectivity ratio (Mus musculus [6]) | Ki [7] [nM] | Selectivity ratio (Mus musculus [8]) | Kd [9] [nM] | Selectivity ratio (Mus musculus [10]) | Ki [11] [nM] | Ki [12] [nM] | Selectivity ratio (Mus musculus [13]) | Ki [14] [nM] | Ki [15] [nM] | Selectivity ratio (Mus musculus [16]) | Selectivity ratio (Mus musculus [17]) | Selectivity ratio (Mus musculus [18])
CC(C)C(CC(=O)OCC1(CO)C/C(=C\c2ccc(O)cc2)C(=O)O1)C(C)C (stereo not drawn) | 1.48 | 9.4 | 1.99 | 0.5 | 0.67 | 0.4 | 1.18 | 3.2 | 2.95 |  |  |  |  |  |  |  |  | 
CC(C)C(CC(=O)OCC1(CO)C/C(=C\c2cccc(O)c2)C(=O)O1)C(C)C (stereo not drawn) | 2.32 | 19.4 | 2.48 | 0.94 | 1.01 | 0.85 | 2.08 | 7.87 | 2.46 |  |  |  |  |  |  |  |  | 
CC(C)C(CC(=O)OCC1(CO)C/C(=C/c2ccc(C(=O)O)cc2)C(=O)O1)C(C)C (stereo not drawn) | 940 | 2810 | 473 | 1.09 | 0.55 | 0.57 | 496 | 3.25 | 865 | 60 | 51900 | 2810 | 3.25 |  |  |  |  | 
CC(C)(C)C(=O)OCC1(CO)C/C(=C\c2ccc(C(=O)O)cc2)C(=O)O1 (stereo not drawn) | 998 | 6140 | 880 | 0.93 | 0.82 | 0.62 | 667 | 5.74 | 1070 | 78 | 83400 | 3700 | 3.49 |  |  |  |  | 
CC(C)CC(C/C=C1\CC(CO)(COC(=O)C(C)(CO)CO)OC1=O)CC(C)C (stereo not drawn) | 2030 | 810 | 806 | 2.61 | 1.04 | 1.44 | 1120 | 1.04 | 777 | 9.83 | 7640 | 23800 | 30.7 | 47000 | 7830 | 10.1 | 60.5 | 
CC(C)CC(CC(=O)OCC1(CO)C/C(=C\c2cccc(C(=O)O)c2)C(=O)O1)CC(C)C (stereo not drawn) | 100 | 1600 | 281 | 0.33 | 0.94 | 1.56 | 468 | 5.33 | 300 |  |  |  |  |  |  |  |  | 3
CC(C)CC(CC(=O)OCC1(CO)C/C(=C\c2ccccc2C(C(=O)OC(C)(C)C)C(=O)OC(C)(C)C)C(=O)O1)CC(C)C (stereo not drawn) | 1.7 | 17.3 | 0.9 | 1.7 | 0.9 | 1.5 | 1.5 | 17.3 | 1 |  |  |  |  |  |  |  |  | 
CC(C)(C)C(=O)OCC1(CO)C/C(=C\c2cccc(C(=O)O)c2)C(=O)O1 (stereo not drawn) | 3360 | 5500 | 1740 | 2.79 | 1.44 | 1.46 | 1760 | 4.57 | 1210 | 87 | 105000 | 16000 | 13.2 |  |  |  |  | 
CC(C)C(CC(=O)OCC1(CO)C/C(=C\c2ccc(C(=O)O)cc2)C(=O)O1)C(C)C (stereo not drawn) | 710 | 6900 | 787 | 1.27 | 1.41 | 1.45 | 813 | 12.4 | 560 | 209 | 117000 | 3800 | 6.79 |  |  |  |  | 
CC(C)CC(CC(=O)OCC1(CO)C/C(=C\c2ccc(C(=O)O)cc2)C(=O)O1)CC(C)C (stereo not drawn) | 120 | 739 | 120 | 1.25 | 1.25 | 0.98 | 94 | 7.7 | 96 |  |  |  |  |  |  |  |  | 
CC(C)C(CC(=O)OCC1(CO)C/C(=C\c2ccccc2O)C(=O)O1)C(C)C (stereo not drawn) | 10.4 | 14 | 3.29 | 3.53 | 1.12 | 0.79 | 2.33 | 4.75 | 2.95 | 81 | 239 | 37 | 12.5 | 63 | 661 | 224 | 21.3 | 
CCCC(=O)O[C@@H]1[C@@H](C)[C@@]2(O)[C@@H](C=C(CO)C[C@]3(O)C(=O)C(C)=C[C@@H]23)[C@@H]2C(C)(C)[C@]12OC(=O)CCC |  | 8 | 1.18 |  |  |  | 0.32 |  | 0.23 |  | 480 | 33.8 |  | 19.6 | 1360 |  |  | 
CC(C)CC(CC(=O)OCC1(CO)C/C(=C\c2ccc(C(C(=O)OC(C)(C)C)C(=O)OC(C)(C)C)cc2)C(=O)O1)CC(C)C (stereo not drawn) | 1.2 | 10.5 | 0.7 | 2 | 1.17 | 1 | 0.6 | 17.5 | 0.6 |  |  |  |  |  |  |  |  | 
CC(C)CC(CC(=O)OCC1(CO)C/C(=C\c2cccc(C(C(=O)OC(C)(C)C)C(=O)OC(C)(C)C)c2)C(=O)O1)CC(C)C (stereo not drawn) | 1 | 8.8 | 0.6 | 2 | 1.2 | 1.2 | 0.6 | 17.6 | 0.5 |  |  |  |  |  |  |  |  | 
